Patent US20250066344A1 (BRISTOL-MYERS SQUIBB COMPANY, priority 2021, published 2025)

Target: T1, human RXFP1 (Homo sapiens, UniProt Q9HBX9)
T1 construct: expressed in transfected cells
T1 sequence (Q9HBX9 1-757): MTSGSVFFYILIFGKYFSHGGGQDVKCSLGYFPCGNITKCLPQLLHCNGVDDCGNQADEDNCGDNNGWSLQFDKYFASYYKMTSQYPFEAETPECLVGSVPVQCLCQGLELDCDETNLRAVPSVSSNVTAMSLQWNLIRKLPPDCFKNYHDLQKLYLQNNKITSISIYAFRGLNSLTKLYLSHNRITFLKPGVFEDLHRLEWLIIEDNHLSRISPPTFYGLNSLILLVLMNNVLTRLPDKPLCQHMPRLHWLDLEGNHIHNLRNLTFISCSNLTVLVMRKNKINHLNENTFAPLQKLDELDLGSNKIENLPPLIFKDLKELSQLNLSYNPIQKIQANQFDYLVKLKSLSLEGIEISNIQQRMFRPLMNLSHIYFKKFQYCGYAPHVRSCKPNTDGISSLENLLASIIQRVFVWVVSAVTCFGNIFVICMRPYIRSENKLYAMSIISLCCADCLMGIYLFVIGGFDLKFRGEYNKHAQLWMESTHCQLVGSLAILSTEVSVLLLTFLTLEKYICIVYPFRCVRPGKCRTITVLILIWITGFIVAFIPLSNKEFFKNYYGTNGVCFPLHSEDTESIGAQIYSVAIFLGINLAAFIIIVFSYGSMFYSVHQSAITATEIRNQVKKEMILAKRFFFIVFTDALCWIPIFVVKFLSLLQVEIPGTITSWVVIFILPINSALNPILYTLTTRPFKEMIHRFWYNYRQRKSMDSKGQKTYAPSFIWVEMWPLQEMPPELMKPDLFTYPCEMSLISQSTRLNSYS
Test: RXFP1 cyclic adenosine monophosphate (cAMP) assay, hRXFP1 HEK293
Format: cell-based
Settings: HEK293 cells stably expressing human RXFP1; 30 min at room temperature; HTRF cAMP
Procedure: RXFP1 Cyclic Adenosine Monophosphate (cAMP) Assays. Human embryonic kidney cells 293 (HEK293) cells and HEK293 cells stably expressing human RXFP1, were cultured in MEM medium supplemented with 10% qualified FBS, and 300 μg/ml hygromycin (Life Technologies). Cells were dissociated and suspended in assay buffer. The assay buffer was HBSS buffer (with calcium and magnesium) containing 20 mM HEPES, 0.05% BSA, and 0.5 mM IBMX. Cells (3000 cells per well, except 1500 cell per well for HEK293 cells stably expressing human RXFP1) were added to 384-well Proxiplates (Perkin-Elmer). Cells were immediately treated with test compounds in DMSO (2% final) at final concentrations in the range of 0.010 nM to 50 μM. Cells were incubated for 30 min at room temperature. The level of intracellular cAMP was determined using the HTRF HiRange cAMP assay reagent kit (Cisbio) according to manufacturer's instructions. Solutions of cryptate conjugated anti-cAMP and d2 fluorophore-labelled cAMP were made in a supplied lysis buffer separately. Upon completion of the reaction, the cells were lysed with equal volume of the d2-cAMP solution and anti-cAMP solution. After a 1 h room temperature incubation, time-resolved fluorescence intensity was measured using the Envision (Perkin-Elmer) at 400 nm excitation and dual emission at 590 nm and 665 nm. A calibration curve was constructed with an external cAMP standard at concentrations ranging from 2.7 μM to 0.1 μM by plotting the fluorescent intensity ratio from 665 nm emission to the intensity from the 590 nm emission against cAMP concentrations. The potency and activity of a compound to […] cAMP production was then determined by fitting to a 4-parametric logistic equation from a plot of cAMP level versus compound concentrations.
The examples disclosed below were tested in the human RXFP1 (hRXFP) HEK293 cAMP assay described above and found to have agonist activity. Tables 1-3, lists EC50 values in the hRXFP1 HEK293 cAMP assay measured for the examples.
Table A lists EC50 values in the hRXFP1 HEK293 cAMP assay measured for the examples.

EC50	SMILES
1000 nM	COc1ccc(C2=NOC3COCC23)cc1C(=O)Nc1cc2nc(C)sc2cc1C(=O)Nc1ccc(F)c(C(F)(F)F)c1 (single isomer, unassigned) [Example 2, N-(4-fluoro-3-(trifluoromethyl)phenyl)-5-(2-methoxy-5-(3a,4,6,6a-tetrahydrofuro[3,4-d]isoxazol-3-yl)benzamido)-2-methylbenzo[d]thiazole-6-carboxamide]
40 nM	COc1ccc(C2=NOC3CC(O)CC23)cc1C(=O)Nc1cc2nc(C)sc2cc1C(=O)Nc1ccc(F)c(C(F)(F)F)c1 (single isomer, unassigned) [Example 8, N-(4-fluoro-3-(trifluorometh-yl)phenyl)-5-(5-(5-hydroxy-3a,5,6,6a-tetra-hydro-4H-cyclopenta[d]isoxazol-3-yl)-2-methoxy-benzamido)-2-methylbenzo [d]thiazole-6-carboxamide]
750 nM	COc1ccc(C2=NOC3CC(O)CC23)cc1C(=O)Nc1cc2nc(C)sc2cc1C(=O)Nc1ccc(F)c(C(F)(F)F)c1 (single isomer, unassigned) [Example 23, N-(4-fluoro-3-(trifluorometh-yl)phenyl)-5-(5-(5-hydroxy-3a,5,6,6a-tetrahydro-4H-cyclopenta [d]isoxazol-3-yl)-2-methoxy-benzamido)-2-methylbenzo [d]thiazole-6-carboxamide]
750 nM	COc1ccc(C2=NOC3CC(O)CC23)cc1C(=O)Nc1cc2nc(C)sc2cc1C(=O)Nc1ccc(F)c(C(F)(F)F)c1 (single isomer, unassigned) [Example 24, N-(4-fluoro-3-(trifluoro-methyl)phen-yl)-5-(5-(5-hydroxy-3a,5,6,6a-tetrahydro-4H-cyclopenta [d]isoxazol-3-yl)-2-methoxy-benzamido)-2-methylbenzo [d]thiazole-6-carboxamide]
2200 nM	COc1ccc(C2=NOC3CC(O)CC23)cc1C(=O)Nc1cc2nc(C)sc2cc1C(=O)Nc1ccc(F)c(C(F)(F)F)c1 (single isomer, unassigned) [Example 27, N-(4-fluoro-3-(trifluorometh-yl)phenyl)-5-(5-(5-hydroxy-3a,5,6,6a-tetra-hydro-4H-cyclopenta[d]isoxazol-3-yl)-2-methoxy-benzamido)-2-methylbenzo [d]thiazole-6-carboxamide]
15 nM	COc1ccc(-c2cc(C(NC(=O)C3CCOCC3)C(=O)O)ccc2F)cc1C(=O)Nc1cc2sc(C)nc2cc1C(=O)Nc1ccc(F)c(C(F)(F)F)c1 (single isomer, unassigned) [Example 30, 2-(6-fluoro-3′-((5-((4-fluoro-3-(trifluoromethyl)phenyl)carbamoyl)-2-methylbenzo[d]thiazol-6-yl)carbamoyl)-4′-methoxy-[1,1′-biphenyl]-3-yl)-2-(tetrahydro-2H-pyran-4-carboxamido)acetic acid]
13 nM	COc1ccc(C2=NOC3CNCC23)cc1C(=O)Nc1cc2c(cc1C(=O)Nc1ccc(F)c(C(F)(F)F)c1)OC(F)(F)O2 (single isomer, unassigned) [Example 43, 2,2-difluoro-N-(4-fluoro-3-(trifluoromethyl)phenyl)-6-(2-methoxy-5-(3a,5,6,6a-tetrahydro-4H-pyrrolo[3,4-d]isoxazol-3-yl)benzamido)benzo[d][1,3]dioxole-5-carboxamide]
49 nM	COc1ccc(C2CCN(C(=O)C(C)(C)O)C2)cc1C(=O)Nc1cc2c(cc1C(=O)Nc1ccc(F)c(C(F)(F)F)c1)OC(F)(F)O2 (single isomer, unassigned) [Example 46, 2,2-difluoro-N-(4-fluoro-3-(trifluoromethyl)phenyl)-6-(5-(1-(2-hydroxy-2-methylpropanoyl)pyrrolidin-3-yl)-2-methoxybenzamido)benzo[d][1,3]dioxole-5-carboxamide]
154 nM	COc1ccc(C2CCCN(S(C)(=O)=O)C2)cc1C(=O)Nc1cc2c(cc1C(=O)Nc1ccc(F)c(C(F)(F)F)c1)OC(F)(F)O2 (single isomer, unassigned) [Example 49, 2,2-difluoro-N-(4-fluoro-3-(trifluoromethyl)phenyl)-6-(2-methoxy-5-(1-(methylsulfonyl)piperidin-3-yl)benzamido)benzo[d][1,3]dioxole-5-carboxamide]
